The source made the active and inactive calls. The calls are words filed in the database; no cut-off is given here.
Key:
HUVEC [1] = assay: Cytotoxicity against HUVEC cells assessed as cell growth inhibition at 0.5 to 20 uM incubated for 24 to 48 hrs by MTT assay; format: toxicity, cell-based; conditions: human, dose lower 0.5 µM, time lower 24 hrs, dose upper 20 µM, time upper 48 hrs
[2] = Half life in ICR mouse at 1 mg/kg, iv measured for 0.083 to 24 hrs by LC-MS/MS analysis; format: ADME, organism-based; conditions: in vivo, time 0.083-24 hrs
[3] = Tmax in ICR mouse at 1 mg/kg, iv measured for 0.083 to 24 hrs by LC-MS/MS analysis; format: ADME, organism-based; conditions: in vivo, time 0.083-24 hrs
[4] = AUC (0 to t) in ICR mouse at 1 mg/kg, iv measured for 0.083 to 24 hrs by LC-MS/MS analysis; format: ADME, organism-based; parameters: time 0.083-24 hrs, dose 1 mg/kg, route iv; conditions: in vivo
[5] = AUC (0 to infinity ) in ICR mouse at 1 mg/kg, iv measured for 0.083 to 24 hrs by LC-MS/MS analysis; format: ADME, organism-based; parameters: time upper 24 hrs, time lower 0.083 hrs, dose 1 mg/kg, route iv; conditions: in vivo
[6] = Apparent volume of distribution in ICR mouse at 1 mg/kg, iv measured for 0.083 to 24 hrs by LC-MS/MS analysis; format: ADME, organism-based; conditions: in vivo, time 0.083-24 hrs, read-out: Vz
[7] = Clearance in ICR mouse at 1 mg/kg, iv measured for 0.083 to 24 hrs by LC-MS/MS analysis; format: ADME, organism-based; conditions: in vivo, time 0.083-24 hrs
[8] = MRT (0 to t) in ICR mouse at 1 mg/kg, iv measured for 0.083 to 24 hrs by LC-MS/MS analysis; format: ADME, organism-based; conditions: in vivo, time 0.083-24 hrs
[9] = MRT (0 to infinity) in ICR mouse at 1 mg/kg, iv measured for 0.083 to 24 hrs by LC-MS/MS analysis; format: ADME, organism-based; conditions: in vivo, time 0.083-24 hrs
[10] = Half life in ICR mouse at 10 mg/kg, po measured for 0.083 to 24 hrs by LC-MS/MS analysis; format: ADME, organism-based; conditions: in vivo, time 0.083-24 hrs
[11] = Tmax in ICR mouse at 10 mg/kg, po measured for 0.083 to 24 hrs by LC-MS/MS analysis; format: ADME, organism-based; conditions: in vivo, time 0.083-24 hrs
[12] = Cmax in ICR mouse at 10 mg/kg, po measured for 0.083 to 24 hrs by LC-MS/MS analysis; format: ADME, organism-based; parameters: time upper 24 hrs, time lower 0.083 hrs, dose 10 mg/kg, route po; conditions: in vivo
[13] = MRT (0 to t) in ICR mouse at 10 mg/kg, po measured for 0.083 to 24 hrs by LC-MS/MS analysis; format: ADME, organism-based; conditions: in vivo, time 0.083-24 hrs
[14] = MRT (0 to infinity) in ICR mouse at 10 mg/kg, po measured for 0.083 to 24 hrs by LC-MS/MS analysis; format: ADME, organism-based; conditions: in vivo, time 0.083-24 hrs
[15] = Oral bioavailability in ICR mouse at 10 mg/kg measured for 0.083 to 24 hrs by LC-MS/MS analysis; format: ADME, organism-based; conditions: in vivo, time 0.083-24 hrs
Mus musculus [16] = assay: In vivo inhibition of aSMase in C57BL/6 mouse assessed as decrease in liver S1P level at 6 to 40 mg/kg, ip bid for 1 week by ELISA method; format: functional, organism-based; conditions: dose 6-40 mg/kg, time 1.0 weeks
Mus musculus [17] = assay: In vivo inhibition of aSMase in C57BL/6 mouse assessed as decrease in liver sphingomyelin level at 6 to 40 mg/kg, ip bid for 1 week by ELISA method; format: functional, organism-based; conditions: dose 6-40 mg/kg, time 1.0 weeks
Mus musculus [18] = assay: In vivo inhibition of aSMase in C57BL/6 mouse assessed as decrease in plasma sphingomyelin level at 6 to 40 mg/kg, ip bid for 1 week by ELISA method; format: functional, organism-based; conditions: dose 6-40 mg/kg, time 1.0 weeks
Mus musculus [19] = assay: In vivo inhibition of aSMase in C57BL/6 mouse assessed as decrease in plasma S1P level at 6 to 40 mg/kg, ip bid for 1 week by ELISA method; format: functional, organism-based; conditions: dose 6-40 mg/kg, time 1.0 weeks
Mus musculus [20] = assay: Antiatherosclerotic activity in high-fat diet fed ApoE-/- mouse assessed as reduction in lipid plaque area administered intraperitoneally twice daily measured after 8 weeks by oil red O staining based analysis; format: functional, organism-based; conditions: dose 12-40 mg/kg, route ip
Mus musculus [21] = assay: Antiatherosclerotic activity in high-fat diet fed ApoE-/- mouse assessed as reduction in plasma total cholesterol level at 12 to 40 mg/kg, ip bid measured after 8 weeks; format: functional, organism-based; conditions: dose 12-40 mg/kg
Mus musculus [22] = assay: Antiatherosclerotic activity in high-fat diet fed ApoE-/- mouse assessed as reduction in plasma total triacylglycerol level at 12 to 40 mg/kg, ip bid measured after 8 weeks; format: functional, organism-based; conditions: dose 12-40 mg/kg
Mus musculus [23] = assay: Antiatherosclerotic activity in high-fat diet fed ApoE-/- mouse assessed as reduction in plasma LDL-C level at 12 to 40 mg/kg, ip bid measured after 8 weeks; format: functional, organism-based; conditions: dose 12-40 mg/kg
Mus musculus [24] = assay: Antiatherosclerotic activity in high-fat diet fed ApoE-/- mouse assessed as reduction in plasma Ox-LDL-C level at 40 mg/kg, ip bid measured after 8 weeks; format: functional, organism-based
Mus musculus [25] = assay: Antiatherosclerotic activity in high-fat diet fed ApoE-/- mouse assessed as reduction in plasma ceramide level administered intraperitoneally twice daily measured after 8 weeks by ELISA method; format: functional, organism-based; conditions: dose 12-40 mg/kg, route ip
HUVEC [26] = assay: Antiinflammatory activity against HUVEC cells assessed as decrease in LPS-induced IL-6 level measured after 22 hrs by ELISA method; format: functional, cell-based; conditions: Homo sapiens, dose 1-5 µM
HUVEC [27] = assay: Antiinflammatory activity against HUVEC cells assessed as decrease in LPS-induced TNF-alpha level measured after 22 hrs by ELISA method; format: functional, cell-based; conditions: Homo sapiens, dose 1-5 µM
HUVEC [28] = assay: Antiinflammatory activity against HUVEC cells assessed as decrease in Ox-LDL-induced MCP-1 mRNA level at 5 uM measured after 22 hrs by RT-PCR analysis; format: functional, cell-based; conditions: Homo sapiens
HUVEC [29] = assay: Upregulation of extracellular sphingomyelin level in HUVEC cells upto 5 uM measured after 22 hrs by ELISA method; format: functional, cell-based; conditions: Homo sapiens
HUVEC [30] = assay: Downregulation of extracellular ceramide level in HUVEC cells upto 5 uM measured after 22 hrs by ELISA method; format: functional, cell-based; conditions: Homo sapiens
HUVEC [31] = assay: Downregulation of extracellular ceramide level in LPS-induced HUVEC cells upto 5 uM measured after 22 hrs by ELISA method; format: functional, cell-based; conditions: Homo sapiens
HUVEC [32] = assay: Upregulation of extracellular sphingomyelin level in Ox-LDL-induced HUVEC cells upto 5 uM measured after 22 hrs by ELISA method; format: functional, cell-based; conditions: Homo sapiens
HUVEC [33] = assay: Downregulation of extracellular ceramide level in Ox-LDL-induced HUVEC cells upto 5 uM measured after 22 hrs by ELISA method; format: functional, cell-based; conditions: Homo sapiens
HUVEC [34] = assay: Effect on extracellular S1P level in HUVEC cells upto 5 uM measured after 22 hrs by ELISA method; format: functional, cell-based; conditions: Homo sapiens
HUVEC [35] = assay: Effect on extracellular S1P level in LPS-induced HUVEC cells upto 5 uM measured after 22 hrs by ELISA method; format: functional, cell-based; conditions: Homo sapiens
HUVEC [36] = assay: Effect on extracellular S1P level in Ox-LDL-induced HUVEC cells upto 5 uM measured after 22 hrs by ELISA method; format: functional, cell-based; conditions: Homo sapiens
HUVEC [37] = assay: Upregulation of intracellular sphingomyelin level in HUVEC cells measured after 22 hrs by ELISA method; format: functional, cell-based; conditions: Homo sapiens, dose <= 5.0 µM
HUVEC [38] = assay: Downregulation of intracellular ceramide level in HUVEC cells at 5 uM measured after 22 hrs by ELISA method; format: functional, cell-based; conditions: Homo sapiens
HUVEC [39] = assay: Upregulation of intracellular sphingomyelin level in Ox-LDL-induced HUVEC cells measured after 22 hrs by ELISA method; format: functional, cell-based; conditions: Homo sapiens, dose <= 5.0 µM

half-life [2]: 12 min | Tmax [3]: 4.98 min | AUC(0-t) [4]: 227 ng·h/mL | AUC(0-inf) [5]: 228 ng·h/mL | Vd [6]: 1.28 L/kg | clearance [7]: 73.2 mL/min/kg | MRT last [8]: 4.62 min | MRT inf [9]: 5.22 min | half-life [10]: 49.8 min | Tmax [11]: 4.98 min | Cmax [12]: 2760 ng/mL | MRT last [13]: 19.2 min | MRT inf [14]: 21 min | bioavailability [15]: 35.4%
SMILES: O=C(NO)c1nc(-c2ccc(COc3ccc(Br)cc3)cc2)no1
Activity (HUVEC [1]): Non-Toxic | Activity (Mus musculus [16]): Active | Activity (Mus musculus [17]): Active | Activity (Mus musculus [18]): Active | Activity (Mus musculus [19]): inactive | Activity (Mus musculus [20]): Dose-Dependent Effect | Activity (Mus musculus [21]): inactive | Activity (Mus musculus [22]): inactive | Activity (Mus musculus [23]): Active | Activity (Mus musculus [24]): Active | Activity (Mus musculus [25]): Dose-Dependent Effect | Activity (HUVEC [26]): Dose-Dependent Effect | Activity (HUVEC [27]): Dose-Dependent Effect | Activity (HUVEC [28]): Active | Activity (HUVEC [29]): Active | Activity (HUVEC [30]): Active | Activity (HUVEC [31]): Active | Activity (HUVEC [32]): Active | Activity (HUVEC [33]): Active | Activity (HUVEC [34]): inactive | Activity (HUVEC [35]): inactive | Activity (HUVEC [36]): inactive | Activity (HUVEC [37]): Dose-Dependent Effect | Activity (HUVEC [38]): Active | Activity (HUVEC [39]): Dose-Dependent Effect
